The results in this text go back to patent US9834526B2 (MERCK SHARP & DOHME CORP., priority 2013, dated 2017).

For the assay, the target named is T1, wildtype HIV-1 protease (Human immunodeficiency virus type 1 group M subtype B, UniProt P04585).
T1 construct: preincubated with the HIV-1 protease (wild type) enzyme in assay buffer; made in house; host or cells: Escherichia coli
As to the kind of experiment: Inhibition of microbial expressed HIV protease (Pepcleav). Format: biochemical. As to conditions: wild type HIV-1 protease expressed in E. coli, 20 pM enzyme, 400 micromolar peptide substrate, pH 5.5, LC-MS readout; mean of at least two independent experiments. As for the experimental part: Assay for Inhibition of Microbial Expressed HIV Protease (“Pepcleav”)
Studies of the inhibition of the wildtype HIV-1 protease (which was expressed in Escherichia coli) were carried out with a peptide substrate [Val-Ser-Gln-Asn-(βnaphthyl)Ala-Pro-Ile-Val (SEQ ID NO:1)]. The inhibitor was first preincubated with the HIV-1 protease (wild type) enzyme in assay buffer (50 mM sodium acetate, pH 5.5, 100 mM NaCl, and 0.1% BSA) for 30 minutes at room temperature. Substrate was added to 400 micromolar in a total volume of 20 microliters containing 20 picomolar HIV-1 protease (final) and the reaction was incubated for 1 hour at 30° C. The reaction was quenched with the addition of formic acid and indinavir to 0.012% and 150 nM final concentrations, respectively. The product formation was determined after separation of product and substrate on a Zorbax Eclipse XDB-C18 column connected to an API 4000 mass spectrometer (Applied Biosystems) with multiple reaction monitoring (transitions were 644.5/428.9 and 615.4/422.2 (M1/M3) for product and indinavir respectively). The extent of inhibition of the reaction was determined from the peak area of the products. Analysis of the products, independently synthesized, provided quantitation standards and confirmation of the product composition.
What is called IC50 is the concentration that inhibits the measured activity by half. Compound `COC(=O)N[C@H](C(=O)Nc1ccccc1CC[C@@H]1CN[C@H](C)[C@@H](CSc2cc(N3CCN(C)CC3)ncn2)O1)C(c1ccccc1)c1ccccc1` [Example 39] registered an IC50 of 420 nM. Compound `COC(=O)N[C@H](C(=O)Nc1ccccc1CC[C@@H]1CN[C@H](C)[C@@H](CS(=O)(=O)c2ccc(Cl)cc2)O1)C(c1ccccc1)c1ccccc1` [Example 40, N-(2-{2-[(2R,5R,6S)-6-{[(4-chlorophenyl)sulfonyl]methyl}-5-methylmorpholin-2-yl]ethyl}phenyl)-Nα-(methoxycarbonyl)-β-phenyl-L-phenylalaninamide] showed an IC50 of 750 nM. In turn, `COC(=O)N[C@H](C(=O)Nc1ccccc1CC[C@@H]1CN[C@H](C)[C@@H](C[S@@+]([O-])c2ccc(Cl)cc2)O1)C(c1ccccc1)c1ccccc1` [Example 41, N-(2-{2-[(2R,5R,6S)-6-{[(R)-(4-chlorophenyl)sulfinyl]methyl}-5-methylmorpholin-2-yl]ethyl}phenyl)-Nα-(methoxycarbonyl)-β-phenyl-L-phenylalaninamide] returned an IC50 of 890 nM. `COC(=O)N[C@H](C(=O)Nc1ccccc1CC[C@@H]1CN[C@H](COCc2ccccc2)[C@@H](CO)O1)C(c1ccccc1)c1ccccc1` [Example 42, N-(2-{2-[(2R,5R,6S)-5-[(benzyloxy)methyl]-6-(hydroxymethyl)morpholin-2-yl]ethyl}phenyl)-Nα-(methoxycarbonyl)-β-phenyl-L-phenylalaninamide]: half-maximal inhibition (IC50) required 80 nM. For `COC(=O)N[C@H](C(=O)Nc1ccccc1CC[C@@H]1CN[C@H](COC(=O)NCC(F)(F)F)[C@@H](CSc2nnc(-c3ccncc3)o2)O1)C(c1ccccc1)c1ccccc1` [Example 43] the value was 0.01 nM; for `C[C@H]1O[C@H](CCc2c(F)cncc2NC(=O)[C@@H](N)C(c2ccc(F)cc2)c2ccc(F)cc2)CN[C@@H]1COC(=O)NCC(F)(F)F` [Example 45, 4-fluoro-N-(5-fluoro-4-{2-[(2R,5R,6R)-6-methyl-5-({[(2,2,2-trifluoroethyl)carbamoyl]oxy}methyl)morpholin-2-yl]ethyl}pyridin-3-yl)-β-(4-fluorophenyl)-L-phenylalaninamide], 24 nM; for `COC(=O)N[C@H](C(=O)Nc1ccccc1CC[C@@H]1CN[C@H](COC(=O)NCC(F)(F)F)[C@@H](CO)O1)C(c1ccccc1)c1ccccc1` [Example 46, N-(2-{2-[(2R,5R,6S)-6-(hydroxymethyl)-5-({[(2,2,2-trifluoroethyl)carbamoyl]oxy}methyl)morpholin-2-yl]ethyl}phenyl)-Nα-(methoxycarbonyl)-β-phenyl-L-phenylalaninamide], 65 nM. For `C[C@H]1O[C@H](CCc2c(F)cccc2NC(=O)[C@@H](N)C(c2ccc(F)cc2)c2ccc(F)cc2)CN[C@@H]1COC(=O)NCc1ccc(F)cc1` [Example 48, 4-fluoro-N-(3-fluoro-2-{2-[(2R,5R,6R)-5-({[(4-fluorobenzyl)carbamoyl]oxy}methyl)-6-methylmorpholin-2-yl]ethyl}phenyl)-β-(4-fluorophenyl)-L-phenylalaninamide], the IC50 amounted to 5.8 nM. The value for `C[C@@H]1O[C@H](CCc2c(F)cccc2NC(=O)[C@@H](N)C(c2ccc(F)cc2)c2ccc(F)cc2)CN[C@@H]1CO` [Example 49, 4-fluoro-N-(3-fluoro-2-{2-[(2R,5R,6S)-5-(hydroxymethyl)-6-methylmorpholin-2-yl]ethyl}phenyl)-β-(4-fluorophenyl)-L-phenylalaninamide] was 400 nM. Compound `C[C@@H]1O[C@H](CCc2c(F)cccc2NC(=O)[C@@H](N)C(c2ccc(F)cc2)c2ccc(F)cc2)CN[C@@H]1COC(=O)NCC(F)(F)F` [Example 50, 4-fluoro-N-(3-fluoro-2-{2-[(2R,5R,6S)-6-methyl-5-({[(2,2,2-trifluoroethyl)carbamoyl]oxy}methyl)morpholin-2-yl]ethyl}phenyl)-β-(4-fluorophenyl)-L-phenylalaninamide] came in with an IC50 of 30 nM. Turning to `C[C@H]1O[C@H](COc2c(F)cncc2NC(=O)[C@@H](N)C(c2ccc(F)cc2)c2ccc(F)cc2)CN[C@@H]1COC(=O)NCC(F)(F)F` [Example 51, 4-fluoro-N-(5-fluoro-4-{[(2S,5R,6R)-6-methyl-5-({[(2,2,2-trifluoroethyl)carbamoyl]oxy}methyl)morpholin-2-yl]methoxy}pyridin-3-yl)-β-(4-fluorophenyl)-L-phenylalaninamide], the IC50 was 77 nM. Consider `C[C@H]1O[C@H](COc2c(F)cncc2NC(=O)[C@@H](N)C(c2ccc(F)cc2)c2ccc(F)cc2)CN[C@@H]1COC(N)=O` [Example 52, N-[4-({(2S,5R,6R)-5-[(carbamoyloxy)methyl]-6-methylmorpholin-2-yl}methoxy)-5-fluoropyridin-3-yl]-4-fluoro-β-(4-fluorophenyl)-L-phenylalaninamide], for which the IC50 was determined as 52 nM. As to `C[C@@H]1O[C@H](CCc2c(F)cncc2NC(=O)[C@@H](N)C(c2ccc(F)cc2)c2ccc(F)cc2)CN[C@@H]1COC(N)=O` [Example 53, N-[4-(2-{(2R,5R,6S)-5-[(carbamoyloxy)methyl]-6-methylmorpholin-2-yl}ethyl)-5-fluoropyridin-3-yl]-4-fluoro-β-(4-fluorophenyl)-L-phenylalaninamide], the IC50 was determined as 25 nM.

Take `C[C@@H]1O[C@H](CCc2c(F)cncc2NC(=O)[C@@H](N)C(c2ccc(F)cc2)c2ccc(F)cc2)CN[C@@H]1COC(=O)NCC(F)(F)F` [Example 54, 4-fluoro-N-(5-fluoro-4-{2-[(2R,5R,6S)-6-methyl-5-({[(2,2,2-trifluoroethyl)carbamoyl]oxy}methyl)morpholin-2-yl]ethyl}pyridin-3-yl)-β-(4-fluorophenyl)-L-phenylalaninamide]: the IC50 turned out to be 30 nM. Turning to `C[C@H]1O[C@H](CCc2c(F)cccc2NC(=O)[C@@H](N)C(c2ccc(F)cc2)c2ccc(F)cc2)CN[C@@H]1COC(=O)NCc1ccc(F)cc1` [Example 56, 4-fluoro-N-(3-fluoro-2-{2-[(2R,5R,6R)-5-({[(4-fluorobenzyl)carbamoyl]oxy}methyl)-6-methylmorpholin-2-yl]ethyl}phenyl)-β-(4-fluorophenyl)-L-phenylalaninamide], half-maximal inhibition (IC50) was put at 7 nM. `C[C@H]1O[C@H](CCc2c(F)cncc2NC(=O)[C@@H](N)C(c2ccc(F)cc2)c2ccc(F)cc2)CN[C@@H]1COC(=O)NCC(F)(F)F` [Example 57, 4-fluoro-N-(5-fluoro-4-{2-[(2R,5R,6R)-6-methyl-5-({[(2,2,2-trifluoroethyl)carbamoyl]oxy}methyl)morpholin-2-yl]ethyl}pyridin-3-yl)-β-(4-fluorophenyl)-L-phenylalaninamide] had an IC50 of 59 nM.

`CC(C)[C@@H](NC(=O)OC[C@H]1NC[C@@H](CCc2c(F)cccc2NC(=O)[C@@H](N)C(c2ccc(F)cc2)c2ccc(F)cc2)O[C@H]1C)c1ccc(F)cc1` [Example 58, 4-fluoro-N-[3-fluoro-2-(2-{(2R,5R,6S)-5-[({[(1R)-1-(4-fluorophenyl)-2-methylpropyl]carbamoyl}oxy)methyl]-6-methylmorpholin-2-yl}ethyl)phenyl]-β-(4-fluorophenyl)-L-phenylalaninamide] had an IC50 of 6.9 nM. For `C[C@@H]1O[C@H](CCc2c(F)cccc2NC(=O)[C@@H](N)C(c2ccc(F)cc2)c2ccc(F)cc2)CN[C@@H]1COC(=O)N[C@@H](c1ccc(F)cc1)C1CC1` [Example 59, N-[2-(2-{(2R,5R,6S)-5-[({[(R)-cyclopropyl(4-fluorophenyl)methyl]carbamoyl}oxy)methyl]-6-methylmorpholin-2-yl}ethyl)-3-fluorophenyl]-4-fluoro-β-(4-fluorophenyl)-L-phenylalaninamide], the IC50 turned out to be 17 nM. For `N[C@H](C(=O)Nc1cccc(F)c1OC[C@@H]1CN[C@@H]2c3ccccc3C[C@@H]2O1)C(c1ccccc1)c1ccccc1` [Example 60, N-{3-fluoro-2-[(2S,4aR,9aS)-2,3,4,4a,9,9a-hexahydroindeno [2,1-b][1,4]oxazin-2-ylmethoxy]phenyl}-β-phenyl-L-phenylalaninamide] the value was 610 nM. Compound `C[C@@H]1O[C@H](CCc2c(F)cccc2NC(=O)[C@@H](N)C(c2ccc(F)cc2)c2ccc(F)cc2)CN[C@@H]1COC(=O)N[C@H](C)C(F)(F)F` [Example 61, 4-fluoro-N-[3-fluoro-2-(2-{(2R,5R,6S)-6-methyl-5-[({[(1R)-2,2,2-trifluoro-1-methylethyl]carbamoyl}oxy)methyl]morpholin-2-yl}ethyl)phenyl]-β-(4-fluorophenyl)-L-phenylalaninamide] had an IC50 of 27 nM. `O=C(CC(c1ccc(F)cc1)c1ccc(F)cc1)Nc1cccc(F)c1CC[C@@H]1CN[C@H](CO)[C@@H](COC(=O)NCC(F)(F)F)O1` [Example 62] registered an IC50 of 170 nM. `N[C@H](C(=O)Nc1cccc(F)c1CC[C@@H]1CN[C@H](CO)[C@@H](COC(=O)NCC(F)(F)F)O1)C(c1ccc(F)cc1)c1ccc(F)cc1` [Example 63, 4-fluoro-N-(3-fluoro-2-{2-[(2R,5R,6S)-5-(hydroxymethyl)-6-({[(2,2,2-trifluoroethyl)carbamoyl]oxy}methyl)morpholin-2-yl]ethyl}phenyl)-β-(4-fluorophenyl)-L-phenylalaninamide] showed a concentration for half-maximal inhibition (IC50) of 130 nM.
